Reference: US11535754B2, “Silicon containing detectable compounds and uses thereof” (Singular Genomics Systems, Inc., priority 2019, dated 2022)

Assay: Absorption maximum (λmax) of the azasiline dyes, from the HPLC / LC-MS absorption profile
Format: physicochemical
Details: absorption profile from HPLC/LC-MS analysis (FIGS. 1A-1B: 100 mM TEAA and ACN); value for compound 4 from initial attempts to quantify the absorption
Description: FIGS. 1A-1B. Absorption profile for compound 2 (FIG. 1A) and compound 3 (FIG. 1B), as described herein: HPLC chromatogram of the reaction mixture with 100 mM triethylammonium acetate (TEAA) and acetonitrile (ACN).
A mixture of 1a (0.155 mmol) and hydrochloric acid (0.053 mL) in absolute ethanol (1.6 mL) was cooled to 0° C., to which a solution of sodium nitrite (12.1 mg in 0.107 mL) in water was added and stirred for 3 hours after which the solid (dark green crystals) was filtered off. It was diluted with ethanol (1 mL) and 0.02 mL of 1N HCl was added to the mixture. The resulting mixture was refluxed for 4 hours. The progress of the reaction was monitored by HPLC using triethylammonium acetate (TEAA) and acetonitrile (ACN) as the mobile phases on reverse phase (RP) C18 column. The formation of the product was confirmed by mass analysis and HPLC analysis based on the wavelength (see FIG. TA). […]
Synthesis of compound 3. […] The reaction mixture was stirred for overnight and the progress of the reaction was monitored by LC-MS analysis to generate compound 3 (λmax 810 nm); see FIG. 1B.
Synthesis of compound 4. […] The reaction mixture was stirred for overnight and the progress of the reaction was monitored by LC-MS analysis to generate and confirm the presence of compound 4.

Compound: CN1CCCc2cc3c(cc21)[Si](C)(C)c1cc2c(cc1=N3)CCC[N+]=2C [compound 4]
- absorption maximum (λmax): greater than 850 nm
